# Molecular target: T1, human HSL (Homo sapiens, UniProt Q05469)
# T1 construct: overlapping PCR to generate a full length human HSL ORF with a 3′-His6 tag; His6 (C); made in house; host or cells: High 5 insect cells (baculovirus, pFast-BAC)
# T1 sequence (Q05469 1-1076): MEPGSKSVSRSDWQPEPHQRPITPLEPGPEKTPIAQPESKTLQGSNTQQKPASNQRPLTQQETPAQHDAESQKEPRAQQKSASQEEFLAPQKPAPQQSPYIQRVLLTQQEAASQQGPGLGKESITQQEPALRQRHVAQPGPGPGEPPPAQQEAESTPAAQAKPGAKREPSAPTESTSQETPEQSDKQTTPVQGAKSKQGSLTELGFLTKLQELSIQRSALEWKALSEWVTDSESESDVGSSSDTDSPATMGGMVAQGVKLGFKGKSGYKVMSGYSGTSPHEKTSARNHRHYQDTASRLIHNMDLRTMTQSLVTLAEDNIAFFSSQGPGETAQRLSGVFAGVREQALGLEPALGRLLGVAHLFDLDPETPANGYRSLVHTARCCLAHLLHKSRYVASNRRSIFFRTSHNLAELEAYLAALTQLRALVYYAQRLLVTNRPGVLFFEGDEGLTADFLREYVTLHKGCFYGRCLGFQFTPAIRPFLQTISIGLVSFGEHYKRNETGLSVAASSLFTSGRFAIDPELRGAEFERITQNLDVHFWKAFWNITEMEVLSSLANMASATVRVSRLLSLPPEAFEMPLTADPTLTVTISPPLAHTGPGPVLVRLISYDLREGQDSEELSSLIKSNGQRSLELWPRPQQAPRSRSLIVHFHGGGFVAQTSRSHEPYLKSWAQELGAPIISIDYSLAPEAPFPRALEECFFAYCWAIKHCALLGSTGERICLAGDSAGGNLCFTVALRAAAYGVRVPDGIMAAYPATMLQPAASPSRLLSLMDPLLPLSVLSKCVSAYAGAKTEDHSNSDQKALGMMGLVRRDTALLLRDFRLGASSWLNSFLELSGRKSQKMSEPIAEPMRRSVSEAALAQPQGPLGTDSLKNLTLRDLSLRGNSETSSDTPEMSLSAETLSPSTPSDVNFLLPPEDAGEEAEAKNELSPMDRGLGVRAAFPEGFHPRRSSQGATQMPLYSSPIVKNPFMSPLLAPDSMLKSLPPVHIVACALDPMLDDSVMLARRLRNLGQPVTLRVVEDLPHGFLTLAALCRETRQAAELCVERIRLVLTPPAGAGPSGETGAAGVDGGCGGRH
# Test: Human hormone-sensitive lipase (HSL) enzyme inhibition assay (colorimetric, DMPT substrate)
# Assay type: biochemical
# Conditions: human full length HSL-His6; 2,3-dimercapto-1-propanol tributyrate substrate; 37° C., 20 minutes; read-out: HSL hum IC50
# Method: Production of Human Full Length Hormone Sensitive Lipase-His^6:
# 1) Cloning: cDNA was prepared from commercial human brain polyA+ RNA and used as a template in overlapping PCR to generate a full length human HSL ORF with a 3′-His6 tag. This full length insert was cloned into the pFast-BAC vector and the DNA-sequence of several single clones was verified. DNA from a correct full length clone with the 3′His6 tag was used to transform the E. coli strain DH10BAC. Resulting bacmid DNA was used to generate a titered baculovirus stock for protein generation. The sequence of the encoded HSL conforms to Swissprot entry Q05469, with the additional C-terminal His6-tag.
# 2) Protein purification: Culture: 5.5 L, High 5 cells expressing human full length HSL-His^6, 48 hr., containing 25 μM E-64. Cell count: […], 90% viable. Cells were thawed. On ice, cells were suspended in Base Buffer containing 10% glycerol, 25 mM Tris-Cl, 300 mM NaCl, 10 mM imidazole, 10 mM 2-mercaptoethanol, 2 μg pepstatin/ml, 2 μg leupeptin/ml, 2 μg antipain/ml, pH 8.0 at 4° C. in a final volume of 475 ml with 3.75×10^7 cells/ml. […] was done at 3×30 sec., Lubrol PX was added to 0.2% final concentration followed by stirring for 15 min. at 4° C. and centrifugation at 25 k×g, 60 min., 4° C. Soluble proteins were mixed with 60 ml of pre-washed and equilibrated Ni-NTA Agarose (Qiagen 30210) followed by tumbling end-over-end, 45 min., 4° C., centrifugation 1000 rpm 5 min and letting resin settle 5 min. Supernatant was removed, the resin washed in the centrifuge vessel using 5 volumes of Base Buffer containing 0.2% Lubrol PX. Centrifugation was done again, then the supernatant discarded. The resin was poured onto a 0.8 μm membrane in a disposable filter unit (Nalge 450-0080), and washed with 5 volumes of Base Buffer containing 0.2% Lubrol PX. It was then washed with 30 volumes of Base Buffer containing 60 mM imidazole pH 7.5 at 4° C. The protein was eluated with 5 volumes of 25 mM Tris-Cl, 300 mM NaCl, 200 mM imidazole, 10 mM 2-mercaptoethanol, pH 7.5 at 4° C. by tumbling resin with buffer end-over-end, 30 min., 4° C. The resin was captured on a 0.2 μm membrane disposable filter unit (Millipore SCGP U02 RE) and the eluate collected in the reservoir. The eluate was concentrated using a 30 k MWCO centrifugal filter device (Sartorius Vivascience Vivacell 100, VC1022), to 20 ml. It was then dialyzed overnight at 4° C., two times against 2 L of 10% glycerol, 25 mM Tris-Cl, 300 mM NaCl, 0.2 mM EDTA, 0.2 mM DTT, pH 7.5 at 4° C. The protein was filtered using a 0.22 μm disposable filter unit (Millipore SCGP00525). The protein concentration was calculated from absorbance at 280 nm, using 280=0.67 cm-1 mg-1. Yield was 235 mg, total. The protein was stored at −80° C.
# Human Hormone-Sensitive Lipase (HSL) Enzyme Inhibition Assay:
# HSL enzyme activity was measured by a colorimetric assay using 2,3-dimercapto-1-propanol tributyrate (Aldrich, St. Louis, Mo.) as a substrate. Typically, 1.5 mM 2,3-dimercapto-1-propanol tributyrate (DMPT) in 100 mM MOPS, pH 7.2, 0.2 mg/ml fatty acid-free BSA was prepared by sonication at 4° C. to homogenous suspension. Test compounds (2 mM stock in DMSO) were diluted 3 fold in series in DMSO. Compound solutions were diluted 24 fold in 1.5 mM DMPT containing solution and 18 ul per well was added to 384-well microplates (Corning Costar). Twelve microliters per well of human HSL (15 ug/ml) was added and the reaction mixture was incubated at 37° C. for 20 minutes. Six microliters of 12 mM dithio-bis-(2-nitrobenzoic acid) (DTNB) in DMSO plus 1.2% SDS and 0.6% Triton X-100 were added and the mixture was incubated at room temperature for 15 minutes. Product production was monitored by reading absorbance at 405 nm on an Envision Reader (PerkinElmer Life and Analytical Sciences, Shelton, Conn.).
row,SMILES,IC50 [nM]
1,"CCN(C(=O)C1CCN(S(=O)(=O)c2ccc(C)cc2)CC1)c1ccc(OC(C)C(F)(F)F)cc1 (racemic) [Example 4, (rac)-1-(Toluene-4-sulfonyl)-piperidine-4-carboxylic acid ethyl-[4-(2,2,2-trifluoro-1-methyl-ethoxy)-phenyl]-amide]",3000
2,"Cc1ccc(S(=O)(=O)N2CCC(C(=O)N(C)c3ccc(OC(C)C(F)(F)F)cc3)CC2)cc1 (racemic) [Example 5, (rac)-1-(Toluene-4-sulfonyl)-piperidine-4-carboxylic acid methyl-[4-(2,2,2-trifluoro-1-methyl-ethoxy)-phenyl]-amide]",120
3,"Cc1ccc(S(=O)(=O)N2CCC(C(=O)Nc3ccc(OC(C)C(F)(F)F)nc3)CC2)cc1 (racemic) [Example 6, (rac)-1-(Toluene-4-sulfonyl)-piperidine-4-carboxylic acid [6-(2,2,2-trifluoro-1-methyl-ethoxy)-pyridin-3-yl]-amide]",120
4,"CN(C(=O)[C@H]1CCN(S(=O)(=O)c2ccccc2Cl)[C@H](CO)C1)c1ccc(OC(F)(F)F)cc1 (racemic) [Example 11, (2S,4S)-1-(2-Chloro-benzenesulfonyl)-2-hydroxymethyl-piperidine-4-carboxylic acid methyl-(4-trifluoromethoxy-phenyl)-amide and (2R,4R)-1-(2-Chloro-benzenesulfonyl)-2-hydroxymethyl-piperidine-4-carboxylic acid methyl-(4-trifluoromethoxy-phenyl)-amide]",80
5,"COC[C@@H]1C[C@@H](C(=O)Nc2ccc(OC(F)(F)F)cc2)CCN1S(=O)(=O)c1ccc(C)cc1 (racemic) [Example 23, Racemic Mixture of Example 23a which is (2S,4S)-2-Methoxymethyl-1-(toluene-4-sulfonyl)-piperidine-4-carboxylic acid (4-trifluoromethoxy-phenyl)-amide and Example 23b which is (2R,4R)-2-Methoxymethyl-1-(toluene-4-sulfonyl)-piperidine-4-carboxylic acid (4-trifluoromethoxy-phenyl)-amide]",110
6,"CC(Oc1ccc(NC(=O)C2(CO)CCN(S(=O)(=O)c3ccccc3Cl)CC2)cc1)C(F)(F)F (racemic) [Example 24, 1-(2-Chloro-benzenesulfonyl)-4-hydroxymethyl-piperidine-4-carboxylic acid [4-(2,2,2-trifluoro-1-methyl-ethoxy)-phenyl]-amide]",1140
7,"Cc1ccc(S(=O)(=O)N2CCC(C(=O)Nc3ccc(OC(C)C(F)(F)F)cc3)CC2)cc1 (racemic) [Example 25, (rac)-1-(toluene-4-sulfonyl)-piperidine-4-carboxylic acid [4-(2,2,2-trifluoro-1-methyl-ethoxy)-phenyl]-amide]",90
8,"CC(Oc1ccc(NC(=O)C2(CO)CCN(S(=O)(=O)c3ccccc3)CC2)cc1)C(F)(F)F (racemic) [Example 27, (rac)-1-Benzenesulfonyl-4-hydroxymethyl-piperidine-4-carboxylic acid [4-(2,2,2-trifluoro-1-methyl-ethoxy)-phenyl]-amide]",950
9,"Cc1ccc(S(=O)(=O)N2CCC(F)(C(=O)Nc3ccc(OC(C)C(F)(F)F)cc3)CC2)cc1 (racemic) [Example 32, (rac-4-Fluoro-1-(toluene-4-sulfonyl)-piperidine-4-carboxylic acid [4-(2,2,2-trifluoro-1-methyl-ethoxy)-phenyl]-amide]",920
10,"Cc1ccc(S(=O)(=O)N2CCC(C(=O)Nc3ccc(OC(C)C4CC4)cc3)CC2)cc1 (racemic) [Example 34, (rac)-1-(Toluene-4-sulfonyl)-piperidine-4-carboxylic acid [4-(1-cyclopropyl-ethoxy)-phenyl]-amide]",90
11,"O=C(Nc1ccc(OC(F)(F)F)cc1)[C@H]1CCN(S(=O)(=O)c2ccccc2Cl)[C@H](CO)C1 (racemic) [Example 36, (2S,4S)-1-(2-Chloro-benzenesulfonyl)-2-hydroxymethyl-piperidine-4-carboxylic acid (4-trifluoromethoxy-phenyl)-amide and (2R,4R)-1-(2-Chloro-benzenesulfonyl)-2-hydroxymethyl-piperidine-4-carboxylic acid (4-trifluoromethoxy-phenyl)-amide]",50
12,"CC(Oc1ccc(NC(=O)C2CCN(S(=O)(=O)c3ccccc3Cl)CC2)cc1)C(F)(F)F (racemic) [Example 40, (rac)-1-(2-Chloro-benzenesulfonyl)-piperidine-4-carboxylic acid [4-(2,2,2-trifluoro-1-methyl-ethoxy)-phenyl]-amide]",70
13,"Cc1ccc(S(=O)(=O)N2CC[C@H](C(=O)Nc3ccc(OC(F)(F)F)cc3)C[C@H]2CO)cc1 (racemic) [Example 42, (2S,4S)-2-Hydroxymethyl-1-(toluene-4-sulfonyl)-piperidine-4-carboxylic acid (4-trifluoromethoxy-phenyl)-amide and (2R,4R)-2-Hydroxymethyl-1-(toluene-4-sulfonyl)-piperidine-4-carboxylic acid (4-trifluoromethoxy-phenyl)-amide]",40
14,"Cc1ccc(S(=O)(=O)N2CCC(C)(C(=O)Nc3ccc(OC(C)C(F)(F)F)cc3)CC2)cc1 (racemic) [Example 43, (rac)-4-Methyl-1-(toluene-4-sulfonyl)-piperidine-4-carboxylic acid [4-(2,2,2-trifluoro-1-methyl-ethoxy)-phenyl]-amide]",810

# From patent publication US8258158B2 (Hoffmann-La Roche Inc., priority 2009, dated 2012)
